How the values were obtained:
[1] = test system: sugar beet; test: Test B pre/postemergence sugar beet; type: in vivo, Beta vulgaris
How it was run: (§1)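 Response is a visual 0-to-10 score relative to untreated plants, where 0 means no effect and 10 means complete control, taken twelve to sixteen days after application. Treatments went onto soil at planting and onto foliage of 1- to 4-leaf plants, using a surfactant-containing non-phytotoxic solvent.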

[2] = test system: bamyardgrass; test: Test B flood test barnyardgrass; type: in vivo, Echinochloa crus-galli
How it was run: (§2)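 Read-out is a visual response score from 0 (no effect) to 10 (complete control), assigned by comparison with untreated controls. Treatment was applied at the 2-leaf stage, and plants stayed in the greenhouse for twelve to sixteen days before scoring.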

[3] = test system: pigweed; test: Test B pre/postemergence pigweed; type: in vivo, Amaranthus retroflexus
How it was run: as §1

[4] = test system: crabgrass; test: Test B pre/postemergence crabgrass; type: in vivo, Digitaria sanguinalis
How it was run: as §1

[5] = test system: giant foxtail; test: Test B pre/postemergence giant foxtail; type: in vivo, Setaria faberii
How it was run: as §1

[6] = test system: velvetleaf; test: Test B pre/postemergence velvetleaf; type: in vivo, Abutilon theophrasti
How it was run: as §1

[7] = test system: smallflower flatsedge; test: Test B flood test smallflower flatsedge; type: in vivo, Cyperus difformis
How it was run: as §2

[8] = test system: soybean; test: Test B pre/postemergence soybean; type: in vivo, Glycine max
How it was run: as §1

[9] = test system: cocklebur; test: Test B pre/postemergence cocklebur; type: in vivo, Xanthium strumarium
How it was run: as §1

[10] = test system: surinam grass; test: Test B pre/postemergence surinam grass; type: in vivo, Brachiaria decumbens
How it was run: as §1

[11] = test system: corn; test: Test B pre/postemergence corn; type: in vivo, Zea mays
How it was run: as §1

[12] = test system: blackgrass; test: Test B pre/postemergence blackgrass; type: in vivo, Alopecurus myosuroides
How it was run: as §1

[13] = test system: rape; test: Test B pre/postemergence rape; type: in vivo, Brassica napus
How it was run: as §1

[14] = test system: wild oat; test: Test B pre/postemergence wild oat; type: in vivo, Avena fatua
How it was run: as §1

[15] = test system: morningglory; test: Test B pre/postemergence morningglory; type: in vivo, Ipomoea hederacea
How it was run: as §1

[16] = test system: purple nutsedge; test: Test B pre/postemergence purple nutsedge; type: in vivo, Cyperus rotundus
How it was run: as §1

[17] = Postemergence, Rate 62 g/ha, scale 0 to 10, 0 is no effect, 10 is complete control
[18] = Postemergence, Rate 250 g/ha, scale 0 to 10, 0 no effect, 10 complete control
[19] = Preemergence, Rate 62 g/ha, scale 0 to 10 (0 no effect, 10 complete control)
[20] = Preemergence, Rate 125 g/ha, scale 0 to 10 (0 no effect, 10 complete control)
[21] = Preemergence, Rate 250 g/ha, scale of 0 to 10 where 0 is no effect and 10 is complete control
[22] = Preemergence, Rate 500 g/ha, scale 0 (no effect) to 10 (complete control)
[23] = Rate 125 g/ha, Postemergence, scale 0 to 10, 0 no effect, 10 complete control
[24] = Rate 500 g/ha, Postemergence, scale 0 to 10, 0 no effect, 10 complete control
[25] = Rate 125 g/ha, Postemergence section (flood test species), scale 0 to 10, 0 no effect, 10 complete control
[26] = Rate 500 g/ha, listed under Postemergence (flood test species), scale 0 to 10, 0 no effect, 10 complete control
[27] = flood test, listed under Postemergence, Rate 250 g/ha, scale 0 to 10, 0 no effect, 10 complete control

Cc1cccc(C(C)C)c1-n1c(=O)on(C(=O)N(c2ccc(F)cc2)C(C)C)c1=O [Compound 65]
Sugarbeets plant response rating [1, 17]: 0 | Sugarbeets plant response rating [1, 18]: 0 | Sugarbeets plant response rating [1, 19]: 0 | Plant response rating, Sugarbeets [1, 20]: 0 | Plant response rating, Sugarbeets [1, 21]: 0 | Sugarbeets plant response rating [1, 22]: 0 | Sugarbeets plant response rating [1, 23]: 0 | Sugarbeets plant response rating [1, 24]: 0 | Barnyardgrass plant response rating [2, 17]: 0 | Barnyardgrass plant response rating [2, 25]: 0 | Barnyardgrass plant response rating [2, 26]: 2 | Barnyardgrass plant response rating [2, 27]: 0 | Redroot pigweed plant response rating [3, 17]: 0 | Redroot pigweed plant response rating [3, 18]: 0 | Redroot pigweed plant response rating [3, 19]: 0 | Plant response rating, Redroot pigweed [3, 20]: 0 | Plant response rating, Redroot pigweed [3, 21]: 0 | Redroot pigweed plant response rating [3, 22]: 3 | Redroot pigweed plant response rating [3, 23]: 0 | Redroot pigweed plant response rating [3, 24]: 0 | Crabgrass plant response rating [4, 17]: 0 | Crabgrass plant response rating [4, 18]: 0 | Crabgrass plant response rating [4, 19]: 0 | Plant response rating, Crabgrass [4, 20]: 2 | Plant response rating, Crabgrass [4, 21]: 4 | Crabgrass plant response rating [4, 22]: 9 | Crabgrass plant response rating [4, 23]: 0 | Crabgrass plant response rating [4, 24]: 0 | Giant foxtail plant response rating [5, 17]: 0 | Giant foxtail plant response rating [5, 18]: 0 | Giant foxtail plant response rating [5, 19]: 3 | Plant response rating, Giant foxtail [5, 20]: 4 | Plant response rating, Giant foxtail [5, 21]: 4 | Giant foxtail plant response rating [5, 22]: 9 | Giant foxtail plant response rating [5, 23]: 0 | Giant foxtail plant response rating [5, 24]: 0 | Velvetleaf plant response rating [6, 17]: 3 | Velvetleaf plant response rating [6, 18]: 3 | Velvetleaf plant response rating [6, 19]: 0 | Plant response rating, Velvetleaf [6, 20]: 0 | Plant response rating, Velvetleaf [6, 21]: 0 | Velvetleaf plant response rating [6, 22]: 0 | Velvetleaf plant response rating [6, 23]: 3 | Velvetleaf plant response rating [6, 24]: 4 | S. Flatsedge plant response rating [7, 17]: 0 | S. Flatsedge plant response rating [7, 25]: 0 | S. Flatsedge plant response rating [7, 26]: 0 | S. Flatsedge plant response rating [7, 27]: 0 | Soybean plant response rating [8, 17]: 1 | Soybean plant response rating [8, 18]: 1 | Soybean plant response rating [8, 19]: 0 | Plant response rating, Soybean [8, 20]: 0 | Plant response rating, Soybean [8, 21]: 0 | Soybean plant response rating [8, 22]: 0 | Soybean plant response rating [8, 23]: 1 | Soybean plant response rating [8, 24]: 1 | Cocklebur plant response rating [9, 17]: 0 | Cocklebur plant response rating [9, 18]: 0 | Cocklebur plant response rating [9, 19]: 0 | Plant response rating, Cocklebur [9, 20]: 0 | Plant response rating, Cocklebur [9, 21]: 0 | Cocklebur plant response rating [9, 22]: 0 | Cocklebur plant response rating [9, 23]: 0 | Cocklebur plant response rating [9, 24]: 0 | B. signalgrass plant response rating [10, 17]: 0 | B. signalgrass plant response rating [10, 18]: 0 | B. signalgrass plant response rating [10, 19]: 0 | Plant response rating, B. signalgrass [10, 20]: 0 | Plant response rating, B. signalgrass [10, 21]: 0 | B. signalgrass plant response rating [10, 22]: 0 | B. signalgrass plant response rating [10, 23]: 0 | B. signalgrass plant response rating ([10]; Rate 500 g/ha, Postemergence, scale of 0 to 10 where 0 is no effect and 10 is complete control): 0 | Corn plant response rating [11, 17]: 0 | Corn plant response rating [11, 18]: 0 | Corn plant response rating [11, 19]: 0 | Plant response rating, Corn [11, 20]: 0 | Plant response rating, Corn [11, 21]: 0 | Corn plant response rating [11, 22]: 0 | Corn plant response rating [11, 23]: 0 | Corn plant response rating [11, 24]: 0 | Blackgrass plant response rating [12, 17]: 0 | Blackgrass plant response rating [12, 18]: 0 | Blackgrass plant response rating [12, 19]: 0 | Plant response rating, Blackgrass [12, 20]: 0 | Plant response rating, Blackgrass [12, 21]: 0 | Blackgrass plant response rating [12, 22]: 0 | Blackgrass plant response rating [12, 23]: 0 | Blackgrass plant response rating [12, 24]: 0 | Rape plant response rating [13, 17]: 0 | Rape plant response rating [13, 18]: 0 | Rape plant response rating [13, 19]: 0 | Plant response rating, Rape [13, 20]: 0 | Plant response rating, Rape [13, 21]: 0 | Rape plant response rating [13, 22]: 3 | Rape plant response rating [13, 23]: 0 | Rape plant response rating [13, 24]: 0 | Wild oats plant response rating [14, 17]: 0 | Wild oats plant response rating [14, 18]: 0 | Wild oats plant response rating [14, 19]: 0 | Plant response rating, Wild oats [14, 20]: 0 | Plant response rating, Wild oats [14, 21]: 0 | Wild oats plant response rating [14, 22]: 0 | Wild oats plant response rating [14, 23]: 0 | Wild oats plant response rating [14, 24]: 0 | Morningglory plant response rating [15, 17]: 0 | Morningglory plant response rating [15, 18]: 1 | Morningglory plant response rating [15, 19]: 0 | Plant response rating, Morningglory [15, 20]: 0 | Plant response rating, Morningglory [15, 21]: 0 | Morningglory plant response rating [15, 22]: 0 | Morningglory plant response rating [15, 23]: 1 | Morningglory plant response rating [15, 24]: 2 | Nutsedge plant response rating [16, 17]: 0 | Nutsedge plant response rating [16, 18]: 0 | Nutsedge plant response rating [16, 19]: 0 | Plant response rating, Nutsedge [16, 20]: 0 | Plant response rating, Nutsedge [16, 21]: 2 | Nutsedge plant response rating [16, 22]: 3 | Nutsedge plant response rating [16, 23]: 0 | Nutsedge plant response rating [16, 24]: 0
